The values that follow come from US8158656B2, “2-indolinone derivatives as multi-target protein kinase inhibitors and histone deacetylase inhibitors” (Shenzhen Chipscreen Biosciences Ltd., priority 2008, dated 2012).

The target in assay [1] is T1, HDAC3 (Homo sapiens, UniProt O15379).
T1 construct: endogenous in cells; host or cells: HeLa
The assay can be described thus: GDF11 reporter assay in HeLa cells. The note with it: relative to CS055 at 3 μM. The assay is classed as cell-based. How it is done: (§1) HDAC subtype selectivity inhibition assay of tested compounds was carried out by several reporter gene assays experiments. Briefly, HeLa cells were seeded in 96-well plates the day before transfection to give a confluence of 50-80%. Cells were transfected with one of reporter gene plasmid containing a promoter sequence or response element upstream of a luciferase gene construct using FuGene6 transfection reagent according to the manufacturer's instruction (Roche). The promoters or response elements including p21-promoter, gdf11-promoter, MEF-binding element (MEF2), Nur77-promoter were fused upstream to the luciferase gene reporter construct. For normalizing the transfection efficiency, a GFP expression plasmid was cotransfected. Cells were allowed to express protein for 24 hours followed by addition of individual compounds or the vehicle (DMSO). 24 hours later the cells were harvested, and the luciferase assay and GFP assay were performed using corresponding assay kits according to the manufacturer's instructions (Promega).

The target in assay [2] is T2, HDAC7 (Homo sapiens, UniProt Q8WUI4).
T2 construct: endogenous in cells; host or cells: HeLa
T2 sequence (Q8WUI4 1-952): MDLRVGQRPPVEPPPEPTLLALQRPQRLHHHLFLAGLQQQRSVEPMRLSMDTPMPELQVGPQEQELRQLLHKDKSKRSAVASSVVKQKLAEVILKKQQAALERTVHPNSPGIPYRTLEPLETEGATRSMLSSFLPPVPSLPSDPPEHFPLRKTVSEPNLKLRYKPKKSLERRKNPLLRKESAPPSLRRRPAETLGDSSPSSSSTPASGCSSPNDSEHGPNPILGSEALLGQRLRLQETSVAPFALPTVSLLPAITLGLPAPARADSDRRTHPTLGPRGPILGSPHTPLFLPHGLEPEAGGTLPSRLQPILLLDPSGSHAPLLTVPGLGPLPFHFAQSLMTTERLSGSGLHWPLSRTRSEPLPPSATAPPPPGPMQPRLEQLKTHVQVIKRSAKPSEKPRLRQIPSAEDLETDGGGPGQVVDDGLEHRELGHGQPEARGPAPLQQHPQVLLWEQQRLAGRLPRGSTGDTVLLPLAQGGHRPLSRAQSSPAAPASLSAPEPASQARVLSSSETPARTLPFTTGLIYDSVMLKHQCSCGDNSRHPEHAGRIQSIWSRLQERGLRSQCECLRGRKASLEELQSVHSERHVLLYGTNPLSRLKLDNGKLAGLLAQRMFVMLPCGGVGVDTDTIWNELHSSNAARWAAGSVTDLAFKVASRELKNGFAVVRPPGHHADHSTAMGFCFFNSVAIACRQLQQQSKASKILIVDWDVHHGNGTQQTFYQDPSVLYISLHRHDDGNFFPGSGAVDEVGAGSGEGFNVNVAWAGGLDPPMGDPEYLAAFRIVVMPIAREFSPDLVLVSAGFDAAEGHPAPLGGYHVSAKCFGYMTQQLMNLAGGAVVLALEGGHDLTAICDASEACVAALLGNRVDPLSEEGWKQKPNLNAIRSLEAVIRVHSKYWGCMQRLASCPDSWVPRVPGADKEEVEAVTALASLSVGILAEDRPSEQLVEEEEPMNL
Kind of assay: Nur77 reporter assay in HeLa cells. Particulars: relative to CS055 at 3 μM. The assay is classed as cell-based. How it is done:
as §1
In general terms: In a reporter assay the amount or activity of a reporter protein is the signal.

In assay [3] the test system is Class I HDAC. Kind of assay: P21 reporter assay in HeLa cells. The assay is classed as cell-based, human. The note with it: relative to CS055 at 3 μM. How it is done:
as §1

The test system of assay [4] is HDAC4/5. Kind of assay: MEF2 reporter assay in HeLa cells. The assay is classed as cell-based, human. Particulars: relative to CS055 at 3 μM. How it is done:
as §1

For assay [5], the system named is A549. Kind of assay: Tumor cell proliferation (MTS), A549. The assay is classed as cell-based. Particulars: Homo sapiens, A549, 72 hours. How it is done: (§2) Measurement of in vivo cell proliferation:
(§3) Tumor cells were trypsinized and plated into 96-well plates at 3,000 per well and incubated in complete medium with 10% FBS for 24 hours. Compounds were added over a final concentration range of 100 μmol/L to 100 nmol/L in 0.1% DMSO and incubated for 72 hours in complete medium. The effects on proliferation were determined by addition of MTS reagent (Promega) according to the instruction, incubation for 2 hours at 37° C. in CO2 incubator, and record the absorbance at 490 nm using an ELISA plate reader.

The test system of assay [6] is U937. Kind of assay: Tumor cell proliferation (MTS), U937. The class given is cell-based. The note with it: Homo sapiens, U-937, U937, 72 hours. How it is done:
as §2, §3

The test system of assay [7] is HeLa. The assay can be described thus: Tumor cell proliferation (MTS), HeLa. Particulars: Homo sapiens, 72 hours. The assay is classed as cell-based. How it is done:
as §2, §3

Assay [8] concerns Hut-78. The assay can be described thus: Tumor cell proliferation (MTS), Hut-78. The assay is classed as cell-based. Particulars: Homo sapiens, HuT78, Hut-78, 72 hours. How it is done:
as §2, §3

Assay [9] relates to MDA-MB-231. The assay can be described thus: Tumor cell proliferation (MTS), MDA-MB-231. The assay is classed as cell-based. Particulars: Homo sapiens, MDA-MB-231, 72 hours. How it is done: as §2, §3
For assay [10], the system named is Ramos. Kind of assay: Tumor cell proliferation (MTS), Ramos. The assay is classed as cell-based. The note with it: Homo sapiens, 72 hours. How it is done: as §2, §3
Assay [11] deals with HL60. Kind of assay: Tumor cell proliferation (MTS), HL60. The assay is classed as cell-based. The note with it: Homo sapiens, HL-60, HL60, 72 hours. How it is done:
as §2, §3

The subject of assay [12] is Jurkat. Kind of assay: Tumor cell proliferation (MTS), Jurkat. The class given is cell-based. The note with it: Homo sapiens, 72 hours. How it is done: as §2, §3
For assay [13], the system named is Raji. The assay can be described thus: Tumor cell proliferation (MTS), Raji. The assay is classed as cell-based. Particulars: Homo sapiens, 72 hours. How it is done: as §2, §3
The subject of assay [14] is HCT-8. Kind of assay: Tumor cell proliferation (MTS), HCT-8. The class given is cell-based. Particulars: Homo sapiens, HCT-8, 72 hours. How it is done:
as §2, §3

Assay [15] concerns Bel-7402. The assay can be described thus: Tumor cell proliferation (MTS), Bel-7402. The assay is classed as cell-based. The note with it: Homo sapiens, Bel-7402, 72 hours. How it is done: as §2, §3
In assay [16] the test system is MCF7. Kind of assay: Tumor cell proliferation (MTS), MCF7. The class given is cell-based. Particulars: Homo sapiens, MCF7, 72 hours. How it is done:
as §2, §3

T1 sequence (O15379 whole entry): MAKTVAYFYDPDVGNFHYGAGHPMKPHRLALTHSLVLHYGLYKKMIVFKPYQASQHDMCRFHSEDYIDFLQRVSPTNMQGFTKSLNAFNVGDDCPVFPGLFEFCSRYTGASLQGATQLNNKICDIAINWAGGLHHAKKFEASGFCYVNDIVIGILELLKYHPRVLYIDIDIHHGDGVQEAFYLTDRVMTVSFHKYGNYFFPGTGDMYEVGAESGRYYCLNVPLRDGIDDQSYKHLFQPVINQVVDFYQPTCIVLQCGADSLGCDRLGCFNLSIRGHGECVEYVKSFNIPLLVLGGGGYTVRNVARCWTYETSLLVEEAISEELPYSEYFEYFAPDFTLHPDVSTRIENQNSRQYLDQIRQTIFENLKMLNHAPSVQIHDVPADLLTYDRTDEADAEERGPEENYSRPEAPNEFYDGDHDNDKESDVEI
T1 sequence (Q9Y618 whole entry partner): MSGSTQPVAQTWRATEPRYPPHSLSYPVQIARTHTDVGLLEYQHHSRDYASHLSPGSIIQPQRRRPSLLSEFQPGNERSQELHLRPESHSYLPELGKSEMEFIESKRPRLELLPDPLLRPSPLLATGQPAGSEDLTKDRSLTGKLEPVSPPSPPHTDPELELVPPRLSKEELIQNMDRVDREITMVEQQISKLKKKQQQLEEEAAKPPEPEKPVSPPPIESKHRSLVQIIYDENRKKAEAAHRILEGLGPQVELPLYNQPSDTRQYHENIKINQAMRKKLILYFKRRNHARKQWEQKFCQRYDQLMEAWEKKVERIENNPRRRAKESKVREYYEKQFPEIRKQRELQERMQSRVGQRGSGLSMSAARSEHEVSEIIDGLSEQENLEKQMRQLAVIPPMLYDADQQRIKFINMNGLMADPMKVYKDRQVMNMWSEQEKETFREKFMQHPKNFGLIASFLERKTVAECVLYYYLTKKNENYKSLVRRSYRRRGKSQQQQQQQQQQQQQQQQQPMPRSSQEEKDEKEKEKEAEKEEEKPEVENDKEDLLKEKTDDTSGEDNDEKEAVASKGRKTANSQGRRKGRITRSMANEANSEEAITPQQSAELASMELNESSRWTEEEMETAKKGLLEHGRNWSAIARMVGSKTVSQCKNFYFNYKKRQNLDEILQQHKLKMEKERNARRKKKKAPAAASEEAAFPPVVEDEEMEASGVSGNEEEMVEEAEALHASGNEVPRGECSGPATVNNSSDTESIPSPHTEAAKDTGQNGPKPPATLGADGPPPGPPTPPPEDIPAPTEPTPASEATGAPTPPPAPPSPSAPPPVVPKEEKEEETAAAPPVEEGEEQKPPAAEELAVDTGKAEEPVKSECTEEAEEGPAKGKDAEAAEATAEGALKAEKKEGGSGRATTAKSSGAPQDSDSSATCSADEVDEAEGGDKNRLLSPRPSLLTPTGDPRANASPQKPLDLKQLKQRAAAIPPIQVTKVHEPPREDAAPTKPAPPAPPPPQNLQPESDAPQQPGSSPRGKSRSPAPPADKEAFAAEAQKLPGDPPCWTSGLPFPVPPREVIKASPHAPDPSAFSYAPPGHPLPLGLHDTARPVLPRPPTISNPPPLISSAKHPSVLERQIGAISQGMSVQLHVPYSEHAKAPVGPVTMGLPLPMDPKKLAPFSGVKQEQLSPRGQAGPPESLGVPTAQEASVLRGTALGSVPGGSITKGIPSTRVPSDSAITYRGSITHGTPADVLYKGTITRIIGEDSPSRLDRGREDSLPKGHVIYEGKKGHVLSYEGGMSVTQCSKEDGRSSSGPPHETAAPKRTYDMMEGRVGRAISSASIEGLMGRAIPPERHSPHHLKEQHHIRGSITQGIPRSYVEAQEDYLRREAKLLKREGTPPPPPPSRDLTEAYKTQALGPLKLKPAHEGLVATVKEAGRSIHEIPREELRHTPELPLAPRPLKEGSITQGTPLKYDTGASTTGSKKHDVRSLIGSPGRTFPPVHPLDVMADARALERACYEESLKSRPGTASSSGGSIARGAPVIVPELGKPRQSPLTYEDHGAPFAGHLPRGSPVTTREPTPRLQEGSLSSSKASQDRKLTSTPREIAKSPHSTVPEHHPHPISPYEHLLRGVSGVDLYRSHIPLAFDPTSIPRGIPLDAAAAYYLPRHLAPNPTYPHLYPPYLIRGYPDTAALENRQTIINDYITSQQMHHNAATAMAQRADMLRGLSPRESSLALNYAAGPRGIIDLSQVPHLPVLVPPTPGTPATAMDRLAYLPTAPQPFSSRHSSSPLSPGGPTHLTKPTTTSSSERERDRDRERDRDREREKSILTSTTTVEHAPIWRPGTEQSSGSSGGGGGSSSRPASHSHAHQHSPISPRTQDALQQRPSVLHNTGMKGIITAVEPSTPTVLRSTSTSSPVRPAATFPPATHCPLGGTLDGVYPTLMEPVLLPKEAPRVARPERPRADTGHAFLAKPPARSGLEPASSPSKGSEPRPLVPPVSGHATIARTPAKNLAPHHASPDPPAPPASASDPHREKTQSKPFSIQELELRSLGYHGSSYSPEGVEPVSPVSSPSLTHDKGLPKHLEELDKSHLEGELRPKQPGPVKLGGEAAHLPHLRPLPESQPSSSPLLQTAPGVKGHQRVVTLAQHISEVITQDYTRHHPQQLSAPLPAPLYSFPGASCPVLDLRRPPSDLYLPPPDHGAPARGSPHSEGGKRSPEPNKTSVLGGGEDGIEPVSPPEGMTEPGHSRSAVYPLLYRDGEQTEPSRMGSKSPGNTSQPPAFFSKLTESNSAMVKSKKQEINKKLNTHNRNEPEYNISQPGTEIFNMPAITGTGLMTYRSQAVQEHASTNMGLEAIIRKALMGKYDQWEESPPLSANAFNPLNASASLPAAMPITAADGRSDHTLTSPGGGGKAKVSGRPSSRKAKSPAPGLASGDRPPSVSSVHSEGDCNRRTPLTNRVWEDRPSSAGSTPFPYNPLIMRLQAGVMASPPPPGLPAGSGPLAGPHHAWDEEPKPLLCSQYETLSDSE

On to `O=C(CCCCCCC(=O)Nc1ccccc1)NO` [SAHA, suberoylanilide hydroxamic acid, reference compound], for which the “HDAC3 (GDF11 reporter assay) % Max Resp of CS055 at 3 μM” value in [1] was 317.9%. In [2], the “HDAC7 (Nur77 reporter assay) % Max Resp of CS055 at 3 μM” value amounted to 514.9%. Moreover, the “Class I HDAC (P21 reporter assay) % Max Resp of CS055 at 3 μM” value in assay [3] is listed as 304.1%. In assay [4], the “HDAC4/5 (MEF2 reporter assay) % Max Resp of CS055 at 3 μM” value amounted to 427.3%.
For orientation: GI50 means the concentration that inhibits growth by half. A high value points to less potent growth inhibition. Consider `CNC(=O)c1cc(Oc2ccc(NC(=O)Nc3ccc(Cl)c(C(F)(F)F)c3)cc2)ccn1` [Sorafinib, reference compound], for which the concentration for 50% growth inhibition (GI50) in assay [5] turned out to be 13.8 µM; in [6] it was 4.06 µM; in [7], 30.8 µM; in assay [8] it was 12.5 µM; in assay [9] it was 4.25 µM; in assay [10] it was 1.51 µM. For the same molecule, the GI50 in assay [11] worked out at 1.28 µM; in assay [12] it was 16.9 µM; in assay [13] it was 4.15 µM; in assay [14], 5.35 µM; in [15], 9.73 µM; in assay [16], 9.51 µM.
Turning to `CCN(CC)CCNC(=O)c1c(C)[nH]c(/C=C2\C(=O)Nc3ccc(F)cc32)c1C` [Sutent, reference compound], the GI50 in assay [5] is 14.7 µM; in assay [6] it was 8.28 µM; in assay [7], 9.29 µM; in [8], 4.06 µM; in [9], 4.66 µM; in assay [10], 12 µM. The GI50 was determined as 1.73 µM in assay [11]; 7.05 µM in assay [12]; 5.47 µM in assay [13]; 12.2 µM in [14]; 13.1 µM in assay [15]; 7.55 µM in assay [16].
